Laboratory results published in patent publication US9187784B2, “EphA4 is a disease modifier in motor neuron disease” (VIB VZW, priority 2011, dated 2015).
Marks after values point to notes of the source that are not given here.

How the values were obtained:
[1] = test system: TDP43A315T embryos; assay: mutant TDP-43-induced motor axonopathy in zebrafish embryos; assay type: in vivo; details: zebrafish embryos
Method: FIG. 14: Inhibiting EphA4 signaling rescues motor axonopathies induced by overexpression of mutant TDP-43 and knockdown of Smn. Y-axes show motor axon length of zebrafish embryos (30 hpf) expressing TDP^WT (black bar) or TDP^A315T (white bar) (Panels A, B) or with unaltered (black bar) or reduced expression levels of Smn (white bar) (Panels C, D). Smn knockdown was established by injection of 3 ng (Panel C) or 6 ng (Panel D) atg-smn morpholino. Ctr-smn morpholino was injected as control. RTK1 signaling was inhibited by injection of 3 ng atg-RTK1 morpholino (shaded bars) (Panels A, C) or by treatment with C1 (500 μM, shaded bars) (Panels B, D). Injection of ctr-RTK1 morpholino and application of a 1/250 dilution of DMSO were used as control. ANOVA and Bonferroni's multiple comparison tests were used for statistical analysis: TDP^A315T/atg-RTK1 (n=24) vs. TDP^A315T/ctr-RTK1 (n=34, p=7.86×10^−5, Panel A), TDP^A315T/C1 (n=21) vs. TDP^A315T/DMSO (n=21, p=0.045, Panel B), atg-smn/atg-RTK1 (n=35) vs. atg-smn/ctr-RTK1 (n=35, p=4.93×10^−8, Panel C), atg-smn/C1 (n=91) vs. atg-smn/DMSO (n=105, p=1.27×10^−6, Panel D). Error bars are s.e.m.
Mann-Whitney test was used to determine significance between TDPA315T/ctr-RTK1 (4.5 ng) vs. TDPA315T/atg-RTK1 (4.5 ng, * p=0.001) and between TDPA315T/control vs. TDPA315T/C1 (° p=0.029). Control=1/250 DMSO and C1=500 μM.
(§1) A morpholino database of translation-blocking morpholinos (atg-mo) was used to perform a morpholino-based knockdown screening in a zebrafish model for ALS.^13 The standard control morpholino (5′-[…]-′3) (SEQ ID NO:4), provided by Gene tools, was used as control. Three nanograms of morpholino were co-injected with […] of SOD1 mRNA and the effect of gene knockdown on the mutant SOD1-induced axonopathy analyzed. Each morpholino was tested in two separate experiments. Only morphologically normal embryos were included for further analysis. Overexpression of SOD1 or TDP-43, applied to validate the protective morpholino, was established by injection of 1.76 ng SOD1 mRNA or 1.43 ng TDP-43 mRNA, respectively. Antisense morpholinos to knockdown zebrafish RTK1, RTK2, Smn and their five base pair-mismatch control morpholinos were developed by Gene tools: atg-RTK1 (5′-[…]-′3) (SEQ ID NO:5), atg-RTK2 (5′-[…]-[…]-′3) (SEQ ID NO:6), splice-RTK2 (5′-[…]-[…]-′3) (SEQ ID NO:7) and atg-smn (5′-[…]-3′) (SEQ ID NO:8). Compound 1 (2,5-dimethylpyrrolyl benzoic acid, Matrix Scientific) dissolved in DMSO was added to the water of 6-hpf-old zebrafish embryos.

[2] = test system: mutant SOD1-overexpressing fish; assay: mutant SOD1-induced motor axonopathy in zebrafish embryos (percentage affected embryos, motor axon length); assay type: in vivo; details: for % affected embryos: Table 3, SOD1A4V embryos
Text: FIG. 1: EphA4 knockdown rescues mutant SOD1-induced motor axonopathy. […] Abnormal branching is indicated with arrowhead. Y-axes show motor axon length of zebrafish embryos expressing wild-type SOD1 (black bar, Panels D-G) or mutant SOD1 (white bar, Panels D-G). Knockdown of RTK2 in SOD1A4V- (Panel D), SOD1G93A- (Panel E) and SOD1G37R- (Panel F) expressing fish was established by co-injection of increasing amounts of atg-RTK2 morpholino (shaded bars). RTK1 expression was inhibited in SOD1A4V-expressing fish by co-injection of atg-RTK1 morpholino (shaded bars, Panel G). Ctr-RTK2 and ctr-RTK1 were used as control. ANOVA and Bonferroni's multiple comparison tests were used for statistical analysis. Comparing axonal length in SOD1A4V fish injected with ctr-RTK2 (n=39) vs. different doses atg-RTK2: 3 ng (n=43, p=0.0059), 4.5 ng (n=37, p=0.0016, Panel D), SOD1G93A: ctr-RTK2 (n=60) vs. atg-RTK2: 1.5 ng (n=55, p=0.015), 3 ng (n=51, p=2.82×10-9), 4.5 ng (n=46, p=2.22×10-15, Panel E), SOD1G37R: ctr-RTK2 (n=37) vs. atg-RTK2: 3 ng (n=25, p=0.027), 4.5 ng (n=36, p=0.0018, Panel F) and SOD1A4V: ctr-RTK1 (n=49) vs. atg-RTK1: 1.5 ng (n=51, p=2.51×10-7), 3 ng (n=64, p=7.99×10-10), 4.5 ng (n=54, p<1×10-20, Panel G). Western blot of SOD1WT or SOD1A4V (1.76 ng) expressing zebrafish embryos (30 hpf), co-injected with either ctr-RTK1 or atg-RTK1 (4.5 ng). Sixty embryos were used per group with actin as the loading control (H). Immunostaining of rtk1 (green) in rhombomeres 3 and 5 and of ephrin-b2 (magenta) in rhombomere 4 in zebrafish embryos injected with either ctr-RTK1 or atg-RTK1 (4.5 ng). RTK1-depleted embryos show disorganized rhombomere boundaries (arrowhead, I, Scale bar 50 μm). Error bars are s.e.m.
FIG. 2: RTK2 knockdown protects motor axons against SOD1^A4V-induced injury. Effect of RTK2 knockdown, established by injection of splice-rtk2 morpholino, on the motor axon length of SOD1^A4V-expressing zebrafish embryos (30 hpf). SOD1^WT-expressing fish and a non-functional five-base pair-mismatch control morpholino (ctr-RTK2) were used as control (Panel A). ANOVA and Bonferroni's multiple comparison tests were used for statistical analysis: SOD1^A4V/ctr-RTK2 (n=56) vs. SOD1^A4V/spl-RTK2 (n=60, 1.79×10^−4). Spl-RTK2 was designed against the exon 2 splice site of the zebrafish RTK2 pre-mRNA and alternatively skipped out exon 2. RT-PCR on non-transgenic fish (lane 1), ctr-RTK2-injected fish (lane 2) and spl-RTK2-injected fish (lane 3) at 30 hpf. Functional RTK2 mRNA, containing exon 2, is indicated by the 818-bp product (upper band) while non-functional RTK2 mRNA, lacking exon 2 is indicated by the 156-bp product (lower band), 60 embryos each group (Panel B). Error bars are s.e.m.
(§2) FIG. 12: Pharmacological inhibition of EphA4 receptor signaling protects against mutant SOD1 pathology in vivo. Effect of treatment with Compound 1 (C1, 500 μM) on the motor axon length of zebrafish embryos (30 hpf). DMSO (1/250 dilution) was used as control (Panel A). ANOVA and Bonferroni's multiple comparison tests were used for statistical analysis: SOD1^A4V/C1 (n=68) vs. SOD1^A4V/DMSO (n=76, p=3.54×10^−5). Effect of KYL-peptide (3 mM) treatment of 60-day-old SOD1^G93A rats on disease onset (Panel B) and survival (Panel C). Artificial CSF (ACSF) was used as control. Average disease onset: 133 days (treated, n=21) versus 125 days (control, n=17, T-test p=0.044). Average survival: 148 days (treated, n=21) versus 139 days (controls, n=17, T-test p=0.041). Error bars are s.e.m.
Effect of RTK2 knockdown (established by injection of atg-RTK2 morpholino) on the percentage of affected wild-type SOD1 or mutant SOD1 (A4V, G93A, G37R) zebrafish embryos (30 hpf). Ctr-RTK2 morpholino was used as control. An embryo was considered as affected when it had more than 10% abnormally branched motor axons. Significance of mtSOD1/ctr-RTK2 (4.5 ng) vs. mtSOD1/atg-RTK2 (4.5 ng) was determined by Mann-Whitney test, * p=0.0075, ° p=0.039 and # p=0.0052. […]

[3] = test system: zebrafish embryos; assay: morpholino-based smn knockdown: abnormally branched and truncated motor axons in zebrafish embryos; assay type: in vivo; details: for truncation affected (%): affected = more than 5% truncated motor axons; for branching affected (%): affected = more than 10% abnormally branched motor axons
Method: FIG. 15: Smn knockdown reduces the motor axon length in zebrafish embryos. […] The non-functional five-base pair-mismatch control morpholino (ctr-smn) was used as control. ANOVA and Bonferroni's multiple comparison tests were used for statistical analysis: ctr-smn (6 ng, n=42) vs. 3 ng atg-smn (n=28, p=8.99×10^−3), 4.5 ng atg-smn (n=30, 3.37×10^−7), 6 ng atg-smn (n=41, p<1×10-20). Error bars are s.e.m.
Effect of smn knockdown, induced by injection of increasing amounts of atg-smn morpholino, on the percentage affected embryos. An embryo was considered as affected when it had more than 10% abnormally branched or more than 5% truncated motor axons. Significance of ctr-smn (6 ng) vs. atg-smn (6 ng) was determined by Mann-Whitney test, *p=3×10-4, ° p=1.3×10-4.
as §1

[4] = test system: SOD1G93A rat; assay: KYL peptide intracerebroventricular treatment of SOD1G93A rats (disease onset, survival); assay type: in vivo
Method: as §2
EphA4−/− mice were mated with SOD1G93A mice for at least six generations. All experiments were littermate and gender controlled. […] The EphA4 blocking peptide ([…] (SEQ ID NO:1)-95% purity; Eurogentec) was a 3 mM solution in artificial cerebrospinal fluid and infused into the left lateral ventricle of 60-day-old female rats, using mini-osmotic pumps (28 days, 0.25 μl/h, Model 2004, Alzet) as previously described.^46 Disease onset, progression and survival of SOD1G93A rats were analyzed by weight and rotarod performance (five times for three minutes at 15 rpm) three times a week. […]

[5] = molecular target: EphA4 (Homo sapiens, UniProt P54764); details: WO2004/028551; cited from earlier work
Chain of EphA4 (P54764 20-986, species assumed): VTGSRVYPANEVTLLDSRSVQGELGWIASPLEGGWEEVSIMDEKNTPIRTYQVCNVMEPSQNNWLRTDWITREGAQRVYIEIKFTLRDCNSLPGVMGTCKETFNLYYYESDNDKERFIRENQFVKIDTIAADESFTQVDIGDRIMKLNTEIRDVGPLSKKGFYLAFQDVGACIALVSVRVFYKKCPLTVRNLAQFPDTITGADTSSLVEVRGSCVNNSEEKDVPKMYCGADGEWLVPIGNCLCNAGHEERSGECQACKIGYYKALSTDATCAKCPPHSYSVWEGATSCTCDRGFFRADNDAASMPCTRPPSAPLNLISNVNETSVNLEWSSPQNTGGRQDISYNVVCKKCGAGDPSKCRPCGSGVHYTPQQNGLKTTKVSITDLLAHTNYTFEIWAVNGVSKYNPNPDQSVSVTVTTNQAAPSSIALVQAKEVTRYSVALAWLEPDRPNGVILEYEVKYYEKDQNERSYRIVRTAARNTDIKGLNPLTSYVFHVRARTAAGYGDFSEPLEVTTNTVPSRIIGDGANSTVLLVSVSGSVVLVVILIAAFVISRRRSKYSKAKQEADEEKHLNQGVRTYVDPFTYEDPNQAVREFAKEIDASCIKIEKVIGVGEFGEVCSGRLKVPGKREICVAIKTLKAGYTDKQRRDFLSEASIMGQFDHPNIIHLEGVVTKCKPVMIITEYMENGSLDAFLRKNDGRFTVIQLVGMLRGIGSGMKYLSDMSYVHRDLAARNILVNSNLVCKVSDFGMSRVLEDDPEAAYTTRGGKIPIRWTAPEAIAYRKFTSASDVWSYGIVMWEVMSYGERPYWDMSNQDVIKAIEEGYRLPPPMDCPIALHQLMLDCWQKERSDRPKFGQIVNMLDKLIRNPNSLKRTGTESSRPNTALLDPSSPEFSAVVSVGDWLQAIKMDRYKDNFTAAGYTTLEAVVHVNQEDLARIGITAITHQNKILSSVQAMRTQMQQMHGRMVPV

For “2,5-dimethylpyrrolyl benzoic acid [Compound C1]”, the “effect on outgrowth deficit and aberrant branching induced by mutant TDP-43” value [1] was “rescued the outgrowth deficit and aberrant branching induced by mutant TDP-43”.
In the case of “5′-CCTCCCACTGA-AAATGGACAGAGGA-′3 (antisense CCTCCCACTGAAAATGGACAGAGGA; all phosphorodiamidate morpholino (PMO)) [spl-RTK2]”, the “effect on mutant SOD1-induced axonopathy” value ([2]; SOD1A4V zebrafish embryos, 30 hpf) is reported as “replicating the protective effect of RTK2 knockdown”, the “% affected embryos” value ([2]; morpholino 0.4 ng) is reported as 40 (30) % and the “% affected embryos” value ([2]; morpholino 0.8 ng) is reported as 19 (31) %. The “% affected embryos” value ([2]; morpholino 1.5 ng) was 13* (31) %.
In the case of “5′-CGACATCTTCTGCACCATTGGC-3′ (all phosphorodiamidate morpholino (PMO)) [atg-smn]”, the “truncation affected (%)” value ([3]; morpholino 3 ng) is reported as 7%, the “branching affected (%)” value ([3]; morpholino 3 ng) is reported as 39% and the “truncation affected (%)” value ([3]; morpholino 4.5 ng) is reported as 11%. The “branching affected (%)” value ([3]; morpholino 4.5 ng) was 46%, the “truncation affected (%)” value ([3]; morpholino 6 ng) was 42° % and the “branching affected (%)” value ([3]; morpholino 6 ng) was 71* %.
For “KYLPYWPVLSSL (EphA4 inhibitory peptide) [KYL peptide]”, the Average survival ([4]; KYL-peptide 3 mM intracerebroventricular from day 60, controls 139 days) is given as 148 days, the Average disease onset ([4]; KYL-peptide 3 mM intracerebroventricular from day 60, onset by rotarod, control 125 days) is given as 133 days and the “binding to EphA4” value [5] is given as “preferentially bind to EphA4”.
For “VTMEAINLAFPG (EphA4 inhibitory peptide) [VTM peptide]”, the “binding to EphA4” value [5] is listed as “preferentially bind to EphA4”.
